# According to PMC9413514, “Accessing Lipophilicity and Biomimetic Chromatography Profile of Biologically Active Ingredients of Botanicals Used in the Treatment of Inflammatory Bowel Disease” (Pharmaceuticals, 2022):
# Columns and labels:
# [1] = IAM-HPLC assay (lipophilicity, affinity to phospholipids); format: physicochemical; details: for logk0 IAM (HPLC lipophilicity index, intercept of linear equation): IAM P.C.DD2 column, PBS pH 7.4/methanol, extrapolated to zero organic modifier
# Procedure: IAM columns provide potential to simulate membrane permeability since the amphiphilic character of phospholipid functional groups plays an important role in IAM retention especially when charged molecules are analysed.
# Stock solutions of analytes and calibration standards were prepared by dissolving 10 mg of each solute in 10 mL of methanol and kept at 4 °C. Working solutions were freshly prepared at the beginning of each day by dilution of the stock solutions to 100 μg/mL with methanol for TLC measurements or mobile phase for HPLC measurements. Before use, the samples were sonicated (Elmasonic XtraTT, Elma Schmidbauer) for 10 min at 25 °C and all working solutions were filtered through 0.2 µm polyethersulfone filters (Obrnuta faza). To protect analytes from photodegradation, the amber glass HPLC vials were used.
# C18-HPLC assay was carried out at Agilent HPLC 1100 and Zorbax SB C18 chromatographic column (length 250 mm.6 mm, particle size 5 µm) by Agilent Technologies, while IAM-HPLC assay was conducted using IAM P.C.DD2 chromatographic column (length 50 mm, i.d. 3.0 mm, particle size […]) by Regis Technologies (Morton Grove, IL, USA). Retention data were collected at 25.0 ± 0.1 °C using isocratic method working with mobile phases, mixing the respective amounts of PBS (10 mM, pH 7.4) and methanol from 35% to 80% of organic solvent in 5% increment. Each mobile phase was shaken vigorously and filtrated through membrane filter, no. 66, diameter 47 mm, pore size 0.45 µm by Supelco and degassed by sonication 5 min before use. The injection volume was set at 10 µL, and the measurements were carried out at flow rate 1.0 mL/min. Natrium nitrate solution (0.1 mg/mL in mobile phase) was used as the marker of dead-time. The absorbance of the analytes during a chromatographic run was collected in the spectral range of 200–400 nm, and the detection wavelength for each analyte was the one providing the maximum peak height.
# [2] = C18-TLC assay (hydrophobicity); format: physicochemical; details: for RM0 (TLC hydrophobicity index, intercept of linear equation): RP-18 TLC, PBS pH 7.4/methanol, extrapolated to zero organic modifier
# Text: In TLC measurements RF value depends on the chemical structure of analyte and its interaction with stationary and mobile phase. […] As it was expected, with increase in the percentage of organic modifier in the mobile phase the increase in RF values can be seen with accompanied decrease in RM values expressed as RM = log(1/RF - 1). Measured RF values were in the range from 0.1 to 0.7 obtained in a wide range of mobile phase organic modifier concentrations. […] Increasing concentration of the organic modifier in the mobile phase caused a slower decrease in the RM values for less hydrophobic analytes than for more hydrophobic ones. […] Increase in the hydrophobicity within curcuminoids and andrographolides is related to increase in lipophilicity determined by shake-flask method (Table 3). Stock solutions of analytes and calibration standards were prepared by dissolving 10 mg of each solute in 10 mL of methanol and kept at 4 °C. Working solutions were freshly prepared at the beginning of each day by dilution of the stock solutions to 100 μg/mL with methanol for TLC measurements or mobile phase for HPLC measurements. Before use, the samples were sonicated (Elmasonic […]) for 10 min at 25 °C and all working solutions were filtered through 0.2 μm polyethersulfone filters (Obrnuta faza). To protect analytes from photodegradation, the amber glass HPLC vials were used. Analyses were carried out using a commercially available 10 cm x 20 cm RP-18 TLC plates with fluorescent indicator (Merck KGaA). 5 μL of each working solution ([…]) was applied to the plates as 5 mm bends, 10 mm from the lower edge and 15 mm from sides of plates. The mobile phases were prepared by mixing the respective amounts of PBS (20 mM, pH 7.4) and methanol from 50% to 80% of organic solvent in 5% increment. The vertical flat-bottom chamber ([…], Switzerland) with a stainless-steel lid was saturated with mobile phase for 30 min. The plates were developed to a distance of 9 cm at room temperature, dried in the open air for 5 min and visualized under λ = 254 nm UV light (UV Cabinet with Dual Wavelength UV lamp by Camag).
Compound,"logk0 IAM (HPLC lipophilicity index, intercept of linear equation) [1]","RM0 (TLC hydrophobicity index, intercept of linear equation) [2]",difference in logk0 IAM values versus andrographolide ([1]; compared to andrographolide),difference in RM0 values versus andrographolide ([2]; compared to andrographolide)
"O=C(C=Cc1ccc(O)cc1)CC(=O)C=Cc1ccc(O)cc1 [Bisdemetoxycurcumin, bisdemetoxycurcumin]",y = −0.0568 x + 4.6386,y = −0.0503 x + 4.1751,,
"COc1cc(/C=C/C(=O)CC(=O)/C=C/c2ccc(O)cc2)ccc1O [Demetoxycurcumin, demetoxycurcumin]",y = −0.0555 x + 4.4229,y = −0.0504 x + 4.1781,,

# Further lines, results first:
"logk0 IAM (HPLC lipophilicity index, intercept of linear equation) [1]","RM0 (TLC hydrophobicity index, intercept of linear equation) [2]",difference in logk0 IAM values versus andrographolide ([1]; compared to andrographolide),difference in RM0 values versus andrographolide ([2]; compared to andrographolide),Compound
y = −0.0464 x + 2.2763,y = −0.0302 x + 2.0908,,,"C=C1CC[C@@H]2[C@](C)(CO)[C@H](O)CC[C@@]2(C)[C@@H]1C/C=C1/C(=O)OC[C@H]1O [Andrographolide, andrographolide]"
y = −0.0620 x + 3.4572,y = −0.0334 x + 2.1672,1.18 units,0.08 units,"C=C1CC[C@@H]2[C@](C)(CO[C@@H]3O[C@H](CO)[C@@H](O)[C@H](O)[C@H]3O)CCC[C@@]2(C)[C@@H]1CCC1=CCOC1=O [Neoandrographolide, neoandrographolide]"
y = −0.0512 x + 3.2026,y = −0.0526 x + 4.4044,,,"O=C(/C=C/C=C/c1ccc2c(c1)OCO2)N1CCCCC1 [Piperine, piperine]"
